Measured values as given in ChEMBL document CHEMBL4184240, “Potent human glutaminyl cyclase inhibitors as potential anti-Alzheimer's agents: Structure-activity relationship study of Arg-mimetic region” (Bioorg Med Chem, 2018).
Active and inactive are the calls of the source. The calls are words filed in the database; no cut-off is given here.

Tests used:
[1] = organism: Mus musculus; assay: animal or person; conditions: ICR, central, read-out: INH
Description: (§1) Antialzheimer activity in human amyloid beta (3 to 40) induced acute ICR mouse Alzheimer's disease mouse model assessed as inhibition of amyloid beta (N3pE to 40) formation in brain at 25 mg/kg, icv administered via deep cortical/hippocampal tissue measured next day by sandwich ELISA relative to control

[2] = Permeability of the compound at pH 7.4 after 30 mins by PAMPA; assay type: ADME; conditions: pH 7.4, 0.5 h
[3] = molecular target: hERG (KCNH2) (Homo sapiens, UniProt Q12809); assay: Inhibition of human ERG at 10 uM relative to control
hERG (KCNH2), sequence (Q12809 whole entry): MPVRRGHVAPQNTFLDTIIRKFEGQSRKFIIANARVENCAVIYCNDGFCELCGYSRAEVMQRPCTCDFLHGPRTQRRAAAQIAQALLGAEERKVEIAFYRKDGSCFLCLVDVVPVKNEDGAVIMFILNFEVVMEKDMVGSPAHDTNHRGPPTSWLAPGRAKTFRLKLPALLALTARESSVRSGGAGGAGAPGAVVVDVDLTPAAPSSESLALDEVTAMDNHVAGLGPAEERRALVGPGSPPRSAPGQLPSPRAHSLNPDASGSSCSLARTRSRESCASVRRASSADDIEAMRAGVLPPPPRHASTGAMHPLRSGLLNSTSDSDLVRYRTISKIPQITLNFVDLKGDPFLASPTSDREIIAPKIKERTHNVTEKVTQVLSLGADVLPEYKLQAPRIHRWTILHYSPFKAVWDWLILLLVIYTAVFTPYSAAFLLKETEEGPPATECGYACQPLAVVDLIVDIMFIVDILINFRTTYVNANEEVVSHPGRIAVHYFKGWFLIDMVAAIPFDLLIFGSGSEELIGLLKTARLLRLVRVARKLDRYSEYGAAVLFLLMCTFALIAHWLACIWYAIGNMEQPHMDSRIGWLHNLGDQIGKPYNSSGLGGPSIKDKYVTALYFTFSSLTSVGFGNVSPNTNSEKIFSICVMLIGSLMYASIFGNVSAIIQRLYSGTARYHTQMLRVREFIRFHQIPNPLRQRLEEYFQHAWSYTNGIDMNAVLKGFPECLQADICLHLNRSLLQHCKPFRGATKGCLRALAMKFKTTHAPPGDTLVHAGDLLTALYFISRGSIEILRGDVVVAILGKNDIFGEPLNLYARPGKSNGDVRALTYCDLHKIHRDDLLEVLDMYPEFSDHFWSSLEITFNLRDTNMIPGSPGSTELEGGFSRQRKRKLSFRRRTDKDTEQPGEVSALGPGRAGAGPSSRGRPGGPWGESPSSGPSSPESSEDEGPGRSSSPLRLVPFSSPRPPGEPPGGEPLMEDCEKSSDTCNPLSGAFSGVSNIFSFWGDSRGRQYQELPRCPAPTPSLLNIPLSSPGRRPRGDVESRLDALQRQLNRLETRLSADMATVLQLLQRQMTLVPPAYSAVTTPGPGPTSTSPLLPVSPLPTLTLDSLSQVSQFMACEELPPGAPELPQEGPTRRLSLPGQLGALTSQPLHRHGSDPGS

[4] = Cytotoxicity against mouse HT22 cells assessed as cell viability at 10 uM relative to control; assay type: cell-based, HT-22; conditions: read-out: Activity
[5] = organism: Mus musculus; conditions: ICR, 25 mg/kg
Description: as §1

Structure (SMILES) | inhibition in vivo at 25 mg/kg [1] [%] | log(permeability) [2] | inhibition at 10 µM [3] [%] | viability at 10 µM [4] [%] | inhibition [5]
COc1cc(NC(=S)NCCCn2cncc2C)ccc1OCCC(=O)N1CCNCC1 | 18.7 | -5.7 | 1.7 | 100 | 
COc1cc(NC(=S)NCCCn2cncc2C)ccc1OCCN1CCN(CCOCCN)CC1 |  |  |  | 51.1 | 
COc1cc(NC(=S)NCCCn2cncc2C)ccc1OCCN1CCN(CCO)CC1 |  | -6 | 9.7 | 100 | inactive
COc1cc(NC(=S)NCCCn2cncc2C)ccc1OCCCC(=O)N1CCNCC1 | 8.07 | -5.7 | 1.9 | 100 | 
COc1cc(NC(=S)NCCCn2cncc2C)ccc1OCC(=O)NC1CCN(CCN)CC1 |  | -6.4 | 17.8 | 100 | inactive
COc1cc(NC(=S)NCCCn2cncc2C)ccc1OCc1ccc(C2CCNCC2)cc1 | 30 | -5.8 | 40.1 | 100 | 
COc1cc(NC(=S)NCCCn2cncc2C)ccc1OCCN1CCN(CCN)CC1 | 5.43 | -5.7 | 2.5 | 100 | 
COc1cc(NC(=S)NCCCn2cncc2C)ccc1OCCC1CCN(CCO)CC1 | 0.19 | -6.7 | 8.2 | 100 | 
COc1cc(NC(=S)NCCCn2cncc2C)ccc1OCCC(=O)NC1CCNCC1 | 13.5 | -5.6 | 5 | 100 | 
COc1cc(NC(=S)NCCCn2cncc2C)ccc1OCCN1CCNCC1C (stereo not given) | 3.01 | -5.8 | 33.4 | 100 | 
COc1cc(NC(=S)NCCCn2cncc2C)ccc1OCCCCc1ccnc(NCCO)c1 |  | -10 | 44.4 | 100 | inactive
COc1cc(NC(=S)NCCCn2cncc2C)ccc1OCCCCN1CCN(CCO)CC1 |  | -8.7 |  | 100 | 
COc1cc(NC(=S)NCCCn2cncc2C)ccc1OCCCCc1ccnc(NCCN)c1 |  | -10 | 31.5 | 100 | inactive
COc1cc(NC(=S)NCCCn2cncc2C)ccc1OCCCCN1CCN(CCN)CC1 |  | -10 | 21.1 | 100 | inactive
COc1cc(NC(=S)NCCCn2cncc2C)ccc1OCC(=O)N1CCN(CCN)CC1 |  | -10 | 14 | 100 | inactive
COc1cc(NC(=S)NCCCn2cncc2C)ccc1Oc1ccc(C2CCNCC2)cc1 |  | -5.6 | 72.8 | 100 | inactive
COc1cc(NC(=S)NCCCn2cncc2C)ccc1OCCN1CC(C)NC(C)C1 (stereo not given) |  | -5.3 | 2.5 | 100 | inactive
COc1cc(NC(=S)NCCCn2cncc2C)ccc1Oc1ccc(N2CCNCC2)cc1 |  | -5.6 | 39.7 | 100 | inactive
COc1cc(NC(=S)NCCCn2cncc2C)ccc1Oc1ccc(C2=CCNCC2)cc1 | 16.1 | -4.9 | 52.8 | 100 | 
COc1cc(NC(=S)NCCCn2cncc2C)ccc1OCCCN1CCN(CCN)CC1 |  | -10 | 28.9 | 100 | inactive
